Test results reported in PubChem BioAssay AID624076 (Broad Institute, 2012).
Active and inactive are the calls of the source. The rule behind the calls is not given here.

Test: PubChem AID 624076
Details: Carna kinase panel, IMAP FP / mobility shift, at 10 µM, hits give high values

Measured: inhibition

COc1ccccc1[C@@H]1C2=C(CC(C)(C)CC2=O)Nc2n[nH]c(C(F)(F)F)c21
active: DYRK1B 52.5% | GSK3a 101% | ROS 82.7% | TRKA 54.8%
inactive: ABL(E255K) -4.01% | ABL(T315I) 0.608% | AKT2 0.755% | AKT3 0.416% | ALK(L1196M) 2.33% | ALK(R1275Q) 2.67% | ARG -1.1% | AXL 4.36% | AurB 6.59% | AurC 6.9% | BRAF, cascade assay 10.8% | BRK -0.572% | BRSK1 4.37% | BTK -2.3% | CDK9/CycT1 20.5% | CHK2 6.76% | CK1e 0.145% | CK1g1 0.48% | CK1g2 2.84% | CK2a2/b -4.08% | CK1d -0.463% | CLK1 15.1% | CLK2 22.8% | CLK3 5.11% | CRIK 0.502% | CaMK2b 2.08% | CaMK4 2.19% | CaMK1d 0.058% | DAPK1 1.44% | DCAMKL2 3.11% | DLK, cascade assay -3.03% | DYRK1A 13.9% | DYRK2 -4.58% | EGFR(L861Q) -0.865% | EML4-ALK 1.03% | EPHA3 -0.86% | EPHA5 -0.402% | EPHA8 -3.88% | EPHB1 3.24% | EPHB4 2.47% | FGFR1 4.17% | FGFR3(K650E) 2.8% | FGFR3(K650M) 1.1e-14% | FGFR4(N535K) 0.356% | FGFR4(V550L) 4.09% | FGFR4 5.54% | FLT4 9% | FMS -0.377% | HER4 -0.972% | HIPK1 8.84% | HIPK3 3.54% | HIPK4 7.81% | Haspin -1.27% | IGF1R -2.57% | IKKb -2.12% | IRAK4 -2.34% | IRR -1.56% | JAK2 -0.539% | JAK3 8.04% | JNK1 -1.99% | JNK2 3.84% | JNK3 2.16% | KIT(T670I) 8.36% | KIT(V560G) 3.59% | KIT 6.69% | LATS2 3.09% | LOK 8.66% | LTK 11.1% | LYNa 15.1% | MAP2K3, cascade assay 6.17% | MAP2K4, cascade assay 0.115% | MAP3K4, cascade assay 7.41% | MAP3K5, cascade assay 14.4% | MAP4K2 7.36% | MARK2 39.1% | MARK4 48.6% | MELK 7.87% | MER 8.36% | MGC42105 0.183% | MINK -2.54% | MLK1, cascade assay 17.6% | MLK2, cascade assay 4.73% | MLK3, cascade assay 1.88% | MSK1 3.83% | MST2 -3.85% | MST4 -1.67% | NDR1 -0.193% | NEK1 0.375% | NEK2 0.761% | NEK6 3.82% | NEK7 -4.5% | PAK3 33.4% | PAK4 17.6% | PAK5 14.9% | PASK 3.87% | PBK 0.885% | PDGFRa(V561D) 2.12% | PEK -3.83% | PGK 0.119% | PHKG1 5.52% | PIK3CA/PIK3R1 -2.01% | PIM2 0.406% | PIM3 8.57% | PKACg 1.21% | PKCa 4.41% | PKCb2 9.38% | PKCd 8.65% | PKCg 5.54% | PKD1 -0.973% | PKD2 0.969% | PKD3 5.41% | PKN1 23.4% | PLK1 0.912% | PRKX -1.49% | RET(S891A) 16.1% | RET(Y791F) 2.31% | ROCK1 6.72% | ROCK2 2.67% | RSK1 8.92% | RSK2 10.7% | RSK4 10.3% | SGK3 0.498% | SIK 3.03% | SLK 10.4% | SRC 4% | SRM -2.09% | SRPK1 13.7% | SYK -0.473% | TAK1-TAB1, cascade assay 3.32% | TIE2 4.15% | TNK1 3.87% | TSSK3 0% | TYK2 -1.6% | WNK2 -0.427% | p38a 1.28% | p38d 15.7%
